Reference: article doi:10.1101/2021.10.13.464265v1 (biorxiv, 2021)
Read-outs that look alike come from different tables or passages of the source.

Columns and labels:
[1] = tested on: E. coli csrA::kanB pBAD-nahK; assay: microbe, parasite or virus in culture; set-up: species or system E. coli MG1655 csrA::kanB; conditions: Escherichia coli, read-out: pBAD-nahK [Ara] = 50 mg/L
[2] = tested on: E. coli csrA::kanB pBAD-nahK; assay: microbe, parasite or virus in culture; set-up: species or system E. coli MG1655 csrA::kanB; conditions: Escherichia coli, read-out: pBAD-nahK [Ara] = 0 mg/L
[3] = tested on: E. coli csrA::kanB pBAD-nahKm; assay: microbe, parasite or virus in culture; set-up: species or system E. coli MG1655 csrA::kanB; conditions: Escherichia coli, read-out: pBAD-nahKm [Ara] = 50 mg/L
[4] = tested on: E. coli csrA::kanB; assay: microbe, parasite or virus in culture; set-up: species or system E. coli MG1655 csrA::kanB; conditions: Escherichia coli, read-out: csrA::kanB [Ara] = 0 mg/L
[5] = tested on: E. coli csrA::kanB pBAD-nahK; assay: microbe, parasite or virus in culture; set-up: species or system E. coli MG1655 csrA::kanB; conditions: Escherichia coli, read-out: pBAD-nahK [Ara] = 50 mg/L, DTT
[6] = target: T1, PgaCDm (PgaC V227L PgaD N75D/K76E) (Escherichia coli, UniProt P75905, V227L); assay: WGA-HRP dot blot of PNAG, densitometry; format: biochemical
T1 sequence (P75905 1-441 V227L): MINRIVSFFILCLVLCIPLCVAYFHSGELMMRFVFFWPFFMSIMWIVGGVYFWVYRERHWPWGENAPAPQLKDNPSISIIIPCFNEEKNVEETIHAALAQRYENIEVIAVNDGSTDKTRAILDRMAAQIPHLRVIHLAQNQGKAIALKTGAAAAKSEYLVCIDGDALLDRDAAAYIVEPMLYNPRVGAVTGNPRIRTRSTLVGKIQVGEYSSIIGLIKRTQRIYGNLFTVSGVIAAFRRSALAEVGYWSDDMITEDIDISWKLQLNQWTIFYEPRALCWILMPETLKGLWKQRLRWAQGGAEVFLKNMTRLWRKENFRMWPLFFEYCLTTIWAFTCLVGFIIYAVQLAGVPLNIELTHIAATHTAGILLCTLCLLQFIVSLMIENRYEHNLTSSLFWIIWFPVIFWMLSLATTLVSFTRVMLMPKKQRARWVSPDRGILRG
T1 sequence (P69432 1-137 N75D/K76E partner): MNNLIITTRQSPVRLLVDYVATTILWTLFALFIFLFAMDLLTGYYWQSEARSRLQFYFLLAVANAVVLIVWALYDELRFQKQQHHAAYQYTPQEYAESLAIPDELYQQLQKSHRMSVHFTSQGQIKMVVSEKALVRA

CC(=O)N[C@H]1C(O)O[C@H](CF)[C@@H](O)[C@@H]1O (mixture of isomers) [1-F, 6-fluoroGlcNAc]
IC50 [1]: 13 ± 3 µM
IC50 [2]: > 2000 µM
IC50 [3]: > 2000 µM

CC(=O)N[C@H]1C(O)O[C@H](C)[C@@H](O)[C@@H]1O (mixture of isomers) [1-H, 6-deoxyGlcNAc]
IC50 [1]: 8 ± 2 µM
IC50 [4]: 530 ± 30 µM
IC50 [2]: 330 ± 10 µM
IC50 [3]: 500 ± 100 µM

CC(=O)NC1C(O)OC(CN=[N+]=[N-])C(O)C1O (centres unmarked) [1-N3, 6-azidoGlcNAc]
IC50 [1]: 2700 ± 400 µM
IC50 [2]: > 5000 µM
IC50 [3]: > 5000 µM

CC(=O)NC1C(O)OC(CN)C(O)C1O (centres unmarked) [1-NH2, 6-aminoGlcNAc]
IC50 [1]: 150 ± 60 µM
IC50 [2]: > 2000 µM
IC50 [3]: > 2000 µM

CC(=O)NC1C(O)OC(CS)C(O)C1O (centres unmarked) [1-SH, 6-thioGlcNAc]
IC50 [1]: 130 µM
IC50 [5]: 64 ± 2 µM
IC50 [2]: > 2000 µM
IC50 [3]: > 2000 µM

CC(=O)N[C@H]1[C@@H](OP(=O)(O)OP(=O)(O)OC[C@H]2O[C@@H](n3ccc(=O)[nH]c3=O)[C@H](O)[C@@H]2O)O[C@H](CF)[C@@H](O)[C@@H]1O [2-F, UDP-6-fluoroGlcNAc]
IC50 [6]: 150 ± 10 µM

CC(=O)N[C@H]1[C@@H](OP(=O)(O)OP(=O)(O)OC[C@H]2O[C@@H](n3ccc(=O)[nH]c3=O)[C@H](O)[C@@H]2O)O[C@H](C)[C@@H](O)[C@@H]1O [2-H, UDP-6-deoxyGlcNAc]
IC50 [6]: 30 µM

CC(=O)N[C@H]1[C@@H](OP(=O)(O)OP(=O)(O)OC[C@H]2O[C@@H](n3ccc(=O)[nH]c3=O)[C@H](O)[C@@H]2O)O[C@H](CN=[N+]=[N-])[C@@H](O)[C@@H]1O [2-N3, 6-azido analogue]
IC50 [6]: > 10000 µM

CC(=O)N[C@H]1[C@@H](OP(=O)(O)OP(=O)(O)OC[C@H]2O[C@@H](n3ccc(=O)[nH]c3=O)[C@H](O)[C@@H]2O)O[C@H](CN)[C@@H](O)[C@@H]1O [2-NH2, 6-amino derivative]
IC50 [6]: 480 ± 60 µM

CC(=O)N[C@H]1[C@@H](OP(=O)(O)OP(=O)(O)OC[C@H]2O[C@@H](n3ccc(=O)[nH]c3=O)[C@H](O)[C@@H]2O)O[C@H](CS)[C@@H](O)[C@@H]1O [2-SH, UDP-6-thioGlcNAc]
IC50 [6]: 60 ± 20 µM

O=c1ccn([C@@H]2O[C@H](COP(=O)(O)OP(=O)(O)O)[C@@H](O)[C@H]2O)c(=O)[nH]1 [UDP]
IC50 [6]: 2700 ± 900 µM
